Measurements from ChEMBL document CHEMBL4340509, “Synthesis and evaluation of novel GSK-3β inhibitors as multifunctional agents against Alzheimer's disease” (Eur J Med Chem, 2019).
Calls of active or inactive are those of the source. The calls are words filed in the database; no cut-off is given here.

Legend:
SH-SY5Y [1] = experiment: Neuroprotective activity against Cu2+-mediated amyloid beta (1 to 42) (unknown origin)-induced cytotoxicity in human SH-SY5Y cells assessed as cell viability at 2 uM measured after 24 hrs by MTT assay (reference value: 71%); type: functional; settings: read-out: Activity
SH-SY5Y [2] = experiment: Cytotoxicity against human SH-SY5Y cells at 2 uM in the presence of CuCl2 measured after 24 hrs by MTT assay; type: cell-based
[3] = Metal chelating activity assessed as compound-Zn2+ complex formation at 20 uM in presence of ZnCl2 after 30 mins by UV-visible spectrophotometric analysis
[4] = Metal chelating activity assessed as compound-Ca2+ complex formation at 20 uM in the presence of CaCl2 after 30 mins by UV-visible spectrophotometric analysis
PC-12 [5] = experiment: Cytotoxicity against rat PC12 cells measured after 24 hrs by MTT assay; type: cell-based; settings: PC-12, 24 h
[6] = Metal chelating activity assessed as Na+-compound complex formation at 20 uM in the presence of NaCl after 30 mins by UV-vis spectrophotometric analysis
[7] = Metal chelating activity assessed as inhibition of Cu(II)/ascorbate-induced ROS production by measuring fluorescence intensity at 100 uM measured at 20 secs interval for 1000 secs by fluorescence assay (reference value: 10 to 52)
[8] = Potency index, ratio of test compound effect to clioquinol effect for disaggregation of Cu2+ induced human HFIP-pretreated amyloid beta (1 to 42) preformed fibrils
SH-SY5Y [9] = experiment: Neuroprotective activity against H2O2-induced oxidative damage in human SH-SY5Y cells assessed as cell viability at 10 uM measured after 24 hrs by MTT assay relative to control; type: functional; settings: read-out: Activity
PC-12 [10] = experiment: Neuroprotective activity against H2O2-induced oxidative damage in rat PC12 cells assessed as cell viability at 10 uM measured after 24 hrs by MTT assay relative to control; type: functional; settings: PC-12, 24 h, read-out: Activity
[11] = Metal chelating activity assessed as compound-Cu2+ complex formation by measuring blue shift in maximum absorption at 20 uM in presence of CuCl2 after 30 mins by UV-visible spectrophotometric analysis (reference value: 248 nanometer)
SH-SY5Y [12] = experiment: Neuroprotective activity against amyloid beta (1 to 42) (unknown origin)-induced cytotoxicity in SH-SY5Y cells assessed as cell viability at 2 uM measured after 24 hrs by MTT assay (reference value: 78%); type: functional; settings: Homo sapiens
[13] = Metal chelating activity assessed as compound-Al3+ complex formation by measuring blue shift in maximum absorption at 20 uM in the presence of AlCl3 after 30 mins by UV-visible spectrophotometric analysis (reference value: 248 to 407 nanometer)
SH-SY5Y [14] = experiment: Cytotoxicity against human SH-SY5Y cells measured after 24 hrs by MTT assay; type: cell-based
[15] = target: T1, Glycogen synthase kinase-3 beta (Homo sapiens, UniProt P49841); experiment: Inhibition of GSK3bbeta in human SH-SY5Y cells assessed as reduction in human amyloid beta (25 to 35) peptide-induced tau hyperphosphorylation at Ser396 residue at 25 uM preincubated for 1 hr followed by amyloid beta-stimulation and measured after 6 hrs by Western blot analysis relative to control; type: cell-based
Target sequence in this assay (P49841 whole entry, looked up): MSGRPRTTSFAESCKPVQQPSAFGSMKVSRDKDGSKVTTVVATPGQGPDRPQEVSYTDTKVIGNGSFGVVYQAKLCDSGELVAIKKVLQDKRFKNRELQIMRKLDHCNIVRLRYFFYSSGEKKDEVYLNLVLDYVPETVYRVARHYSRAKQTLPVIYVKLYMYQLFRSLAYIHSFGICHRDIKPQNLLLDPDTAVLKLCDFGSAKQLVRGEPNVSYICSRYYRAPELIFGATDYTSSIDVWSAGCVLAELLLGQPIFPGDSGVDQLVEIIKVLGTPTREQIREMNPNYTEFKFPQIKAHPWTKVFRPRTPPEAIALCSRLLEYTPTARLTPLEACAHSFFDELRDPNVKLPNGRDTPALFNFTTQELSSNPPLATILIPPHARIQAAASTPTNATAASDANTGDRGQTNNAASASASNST

[16] = Antioxidant activity assessed as ABTS radical scavenging activity incubated for 6 mins; type: functional
[17] = Disaggregation of Cu2+ induced human HFIP-pretreated amyloid beta (1 to 42) preformed fibrils at 40 uM measured after 24 hrs by ThT-based fluorescence assay relative to control
[18] = target: Amyloid-beta precursor protein (Homo sapiens) (UniProt P05067); experiment: Inhibition of human HFIP-pretreated amyloid beta (1 to 42) self aggregation at 40 uM after 24 hrs by ThT-based fluorometric method relative to control
Amyloid-beta precursor protein (Homo sapiens), sequence (P05067 whole entry): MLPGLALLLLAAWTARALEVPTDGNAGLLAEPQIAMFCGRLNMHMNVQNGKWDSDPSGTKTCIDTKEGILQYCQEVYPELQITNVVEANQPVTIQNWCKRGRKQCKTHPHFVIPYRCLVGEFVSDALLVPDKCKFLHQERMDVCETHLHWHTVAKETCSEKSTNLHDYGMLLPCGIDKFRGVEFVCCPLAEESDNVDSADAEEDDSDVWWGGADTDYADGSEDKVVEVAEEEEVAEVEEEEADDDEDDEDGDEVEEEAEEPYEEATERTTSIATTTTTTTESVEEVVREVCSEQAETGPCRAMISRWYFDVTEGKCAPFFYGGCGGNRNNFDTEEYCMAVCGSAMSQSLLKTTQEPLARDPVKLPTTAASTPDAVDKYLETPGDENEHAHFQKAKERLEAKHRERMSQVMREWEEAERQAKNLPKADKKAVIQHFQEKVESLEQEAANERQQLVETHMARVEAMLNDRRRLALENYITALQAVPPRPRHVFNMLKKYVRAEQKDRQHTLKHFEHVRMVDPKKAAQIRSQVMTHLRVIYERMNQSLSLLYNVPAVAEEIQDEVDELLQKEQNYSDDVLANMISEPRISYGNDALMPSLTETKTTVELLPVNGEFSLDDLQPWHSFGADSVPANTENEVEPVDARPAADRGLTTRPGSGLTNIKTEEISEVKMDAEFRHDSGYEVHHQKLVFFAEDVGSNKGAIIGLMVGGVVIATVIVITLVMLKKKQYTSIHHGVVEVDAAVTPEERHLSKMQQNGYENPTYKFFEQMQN

SH-SY5Y [19] = experiment: Neuroprotective activity against H2O2-induced oxidative damage in human SH-SY5Y cells assessed as increase in cell viability measured after 24 hrs by MTT assay; type: functional, cell-based
[20] = target: T1, Glycogen synthase kinase-3 beta; experiment: Inhibition of GSK3bbeta in human SH-SY5Y cells assessed as reduction in human amyloid beta (25 to 35) peptide-induced tau hyperphosphorylation at Ser396 residue preincubated for 1 hr followed by amyloid beta-stimulation and measured after 6 hrs by Western blot analysis; type: cell-based
Target sequence in this assay (P49841 whole entry, looked up): as the sequence (P49841 whole entry, looked up) above

[21] = target: Amyloid-beta precursor protein (Homo sapiens) (UniProt P05067); experiment: Disaggregation of HFIP-pretreated human amyloid beta (1 to 42) preformed fibrils at 40 uM after 24 hrs by ThT-based fluorometric method relative to control
[22] = Metal chelating activity assessed as compound-Fe2+ complex formation at 20 uM in the presence of FeSO4 after 30 mins by UV-visible spectrophotometric analysis
[23] = Inhibition of Cu2+-induced HFIP pretreated human amyloid beta (1 to 42) aggregation at 40 uM measured after 24 hrs by ThT-based fluorescence assay relative to control
[24] = Metal chelating activity assessed as compound-Mg2+ complex formation at 20 uM in the presence of MgCl2 after 30 mins by UV-visible spectrophotometric analysis
[25] = Potency index, ratio of trolox IC50 to test compound IC50 for ABTS radical scavenging activity; type: functional
[26] = target: T1, Glycogen synthase kinase-3 beta; experiment: Inhibition of GSK-3beta (unknown origin) using FAM-labeled peptide as substrate preincubated for 10 mins followed by substrate addition by caliper assay
Target sequence in this assay (P49841 whole entry): as the sequence (P49841 whole entry, looked up) above

[27] = Metal chelating activity assessed as K+-compound complex formation at 20 uM in the presence of KCl after 30 mins by UV-vis spectrophotometric analysis

For `Nc1ncc(-c2ccccc2)cc1/N=C/c1ccnc(NC(=O)C2CC2)c1`, which viability at 2 µM (SH-SY5Y [1]) is on record?
Its viability at 2 µM is 93%.

And the Activity (SH-SY5Y [2])?
The Activity was “Non-Toxic”.

What about the Activity [3] of the same compound?
The Activity was “inactive”.

And the Activity [4]?
The Activity was “inactive”.

And the IC50 (PC-12 [5])?
Its IC50 is 83.2 µM.

What about the Activity [6] of the same compound?
The Activity was “inactive”.

And the Flu intensity [7]?
The Flu intensity was 53 to 68.

And the Ratio [8]?
The Ratio was 2.

And the viability at 10 µM (SH-SY5Y [9])?
The viability at 10 µM was 92.7%.

What about the viability at 10 µM (PC-12 [10]) of the same compound?
Its viability at 10 µM is 71.8%.

What about the Activity [11] of the same compound?
The Activity was 244 nm.

And the Activity (SH-SY5Y [12])?
The Activity was “inactive”.

What about the Activity [13] of the same compound?
Its Activity is 242 to 339 nm.

And the IC50 (SH-SY5Y [14])?
Its IC50 is 158 µM.

What about the inhibition [15] of the same compound?
The inhibition was less than 50%.

And the IC50 [16]?
Its IC50 is 7.3 µM.

What about the Activity [17] of the same compound?
Its Activity is 66.1%.

And the inhibition [18]?
Its inhibition is “inactive”.

What about the Activity (SH-SY5Y [19]) of the same compound?
The Activity was “Dose-dependent effect”.

What about the inhibition [20] of the same compound?
The inhibition was “Dose-dependent effect”.

What about the Activity [21] of the same compound?
Its Activity is “inactive”.

What about the Activity [22] of the same compound?
The Activity was “inactive”.

What about the inhibition [23] of the same compound?
Its inhibition is 63%.

What about the Activity [24] of the same compound?
Its Activity is “inactive”.

What about the Ratio IC50 [25] of the same compound?
Its Ratio IC50 is 2 to 4.

What about the IC50 [26] of the same compound?
Its IC50 is 0.049 µM.

And the Activity [27]?
Its Activity is “inactive”.
